Some test systems named below: NCI-H226; 786-0; EKVX; RPMI-8226; HT-29; M14; TK-10; DU-145; IGROV-1; OVCAR-4; NCI-H460; HL-60; CCRF-CEM; OVCAR-3; SNB-19; HCT-15; Malme-3M; MCF7; CAKI-1; COLO 205.
What all share (assay): growth of human tumour cells (NCI), 48 h

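Five compound concentrations were applied to cells in 96-well plates for 48 hours; endpoints were derived by simple linear interpolation of the resulting dose-response curve. The concentration for 50% growth inhibition is given as GI50.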 Activity calls are given as the source filed them. Cut-off read from the data, not from the text of the source: active = GI50 up to about 1.1 µM and inactive = higher.

Consider `O=C(O)/C=C(/CC(=O)O)C(=O)O`, for which the GI50 in the assay with NCI-H226 is 21.6 µM (inactive); in the assay on 786-0 it was 17.5 µM (inactive); with EKVX, 19.3 µM (inactive); in the assay on RPMI-8226, 14.9 µM (inactive); with HT-29, 21.8 µM (inactive); in the assay with M14, 18.7 µM (inactive). Moreover, the GI50 in the assay on TK-10 is 23.2 µM (inactive); in the assay on DU-145, 19.9 µM (inactive); in the assay with IGROV-1, 20.9 µM (inactive); in the assay with OVCAR-4, 25.8 µM (inactive); in the assay with NCI-H460, 35.2 µM (inactive); with HL-60, 21 µM (inactive). Further, the GI50 with CCRF-CEM was 13.6 µM (inactive); with OVCAR-3, 15.7 µM (inactive); in the assay on SNB-19, 22.2 µM (inactive); in the assay with HCT-15 it was 22.7 µM; in the assay with Malme-3M it was 18.7 µM (inactive); in the assay with MCF7 it was 19.3 µM (inactive). Moreover, the GI50 was 20.6 µM (inactive) with CAKI-1 and 17.6 µM (inactive) in the assay with COLO 205.

As for `O=C(CCN1CCCCC1)Nc1ccc2c(c1)C(=O)c1ccc(NC(=O)CCN3CCCCC3)cc1C2=O`, the GI50 with NCI-H226 was 15.6 µM (inactive); in the assay with 786-0 it was 1.61 µM (inactive); in the assay with EKVX, 15.6 µM (inactive); with RPMI-8226, 4.43 µM (inactive); in the assay with HT-29, 3.24 µM (inactive); in the assay with M14 it was 5.73 µM (inactive). The GI50 in the assay on TK-10 was 8.34 µM (inactive); in the assay with DU-145, 14 µM (inactive); with IGROV-1, 3.61 µM (inactive); in the assay on OVCAR-4, 3.5 µM (inactive); in the assay on NCI-H460, 1.57 µM (inactive); in the assay on HL-60, 2.79 µM (inactive). Moreover, the GI50 in the assay with CCRF-CEM is 2.37 µM (inactive); in the assay on OVCAR-3 it was 8.11 µM (inactive); in the assay on SNB-19, 4.48 µM (inactive); in the assay with HCT-15 it was 2.59 µM; in the assay with Malme-3M, 10.5 µM (inactive); with MCF7, 2.31 µM (inactive). Also, the GI50 is 12.6 µM (inactive) in the assay on CAKI-1 and 10.9 µM (inactive) in the assay on COLO 205.

Take `CCOC(=O)/C(=C\NC(=S)Nc1ccc(OCC)cc1)C(=O)c1ccccc1`: the GI50 in the assay with NCI-H226, with 786-0, in the assay on EKVX, with RPMI-8226, in the assay with HT-29 and in the assay on M14 was > 100 µM (inactive) each time. Also, the GI50 in the assay with DU-145 is > 100 µM (inactive); in the assay with IGROV-1, > 100 µM (inactive); in the assay with OVCAR-4, 79.8 µM (inactive); in the assay with NCI-H460 it was > 100 µM (inactive); with HL-60 it was > 100 µM (inactive); in the assay on CCRF-CEM, > 100 µM (inactive). For the same compound, the GI50 with OVCAR-3 is > 100 µM (inactive); with SNB-19, > 100 µM (inactive); in the assay with HCT-15, more than 100 µM; in the assay on Malme-3M it was > 100 µM (inactive); in the assay with MCF7 it was > 100 µM (inactive); in the assay with CAKI-1, > 100 µM (inactive). The GI50 in the assay on COLO 205 was > 100 µM (inactive).

On to `COc1ccc(C(=C2C(=O)OC(=O)C2=C(C)C)c2ccc(OC)cc2)cc1`, for which the GI50 in the assay with NCI-H226 is > 100 µM (inactive); with 786-0, > 100 µM (inactive); with EKVX, 27 µM (inactive); in the assay on RPMI-8226 it was 28.8 µM (inactive); in the assay with HT-29 it was 48 µM (inactive); in the assay with M14 it was 85.1 µM (inactive). Further, the GI50 in the assay with TK-10 is > 100 µM (inactive); in the assay on DU-145, > 100 µM (inactive); in the assay on IGROV-1, 54 µM (inactive); in the assay on OVCAR-4, 29.6 µM (inactive); with NCI-H460, > 100 µM (inactive); in the assay with HL-60, 31.2 µM (inactive). In addition, the GI50 is 22 µM (inactive) with OVCAR-3; 57.4 µM (inactive) in the assay with SNB-19; 51.9 µM in the assay with HCT-15; 92 µM (inactive) in the assay with Malme-3M; > 100 µM (inactive) in the assay on MCF7; > 100 µM (inactive) with CAKI-1. In addition, in the assay with COLO 205, the GI50 was > 100 µM (inactive).

As for `Cc1nc2ccc(S(=O)(=O)O)cc2c(=O)n1-c1ccc(C(=O)NN2C(=O)C(Cl)C2c2ccccc2O)cc1` (stereo not drawn), the GI50 is > 100 µM (inactive) with NCI-H226; > 100 µM (inactive) in the assay on 786-0; 60.1 µM (inactive) with EKVX; > 100 µM (inactive) in the assay on RPMI-8226; > 100 µM (inactive) with HT-29; > 100 µM (inactive) in the assay with M14. The GI50 in the assay with TK-10, in the assay with DU-145, with IGROV-1, with OVCAR-4, in the assay with HL-60 and with CCRF-CEM was > 100 µM (inactive) each time. Moreover, the GI50 in the assay with OVCAR-3 was > 100 µM (inactive); with SNB-19, > 100 µM (inactive); in the assay on HCT-15, more than 100 µM; in the assay with Malme-3M it was > 100 µM (inactive); in the assay on MCF7, > 100 µM (inactive); in the assay with CAKI-1, > 100 µM (inactive). Moreover, the GI50 in the assay on COLO 205 is > 100 µM (inactive).

Consider `NC(=O)c1nnsc1NC=O`, for which the GI50 with NCI-H226, in the assay with 786-0, with EKVX, in the assay on RPMI-8226, in the assay on HT-29 and in the assay with M14 was > 100 µM (inactive) throughout. Moreover, the GI50 in the assay on DU-145, in the assay on IGROV-1, in the assay on NCI-H460, in the assay on HL-60, in the assay with CCRF-CEM and in the assay with SNB-19 was > 100 µM (inactive) each time. The GI50 in the assay on HCT-15 was more than 100 µM; in the assay on Malme-3M, > 100 µM (inactive); in the assay with MCF7, > 100 µM (inactive); in the assay with CAKI-1 it was > 100 µM (inactive); in the assay on COLO 205 it was > 100 µM (inactive).

On to `C/C(=N\NC(=S)N1CCCCCC1)c1cccc2cccnc12`, for which the GI50 was 0.589 µM (active) with NCI-H226; 2.01 µM (inactive) in the assay on 786-0; 1.29 µM (inactive) in the assay with EKVX; 0.109 µM (active) with RPMI-8226; 1.4 µM (inactive) with HT-29; 1.55 µM (inactive) in the assay on M14. Besides, the GI50 is 2.48 µM (inactive) in the assay with TK-10; 2.95 µM (inactive) with DU-145; 1.86 µM (inactive) in the assay on IGROV-1; 0.681 µM (active) with NCI-H460; 1.25 µM (inactive) with HL-60; < 0.01 µM (active) in the assay on CCRF-CEM. Further, the GI50 was 0.0203 µM (active) with OVCAR-3; 1.76 µM (inactive) with SNB-19; 0.287 µM in the assay with HCT-15; 3.17 µM (inactive) in the assay with Malme-3M; 0.984 µM (active) in the assay on MCF7; 0.355 µM (active) in the assay with CAKI-1. In addition, in the assay with COLO 205, the GI50 was 0.459 µM (active).

As to `COc1cccc2c1C(=O)c1ccc3cc(CCl)cc(O)c3c1C2=O`, the GI50 is 0.869 µM (active) in the assay on NCI-H226; 0.174 µM (active) with 786-0; 1.09 µM (active) in the assay with EKVX; 0.182 µM (active) with RPMI-8226; 0.207 µM (active) with HT-29; 0.229 µM (active) in the assay on M14. Also, the GI50 is 0.238 µM (active) in the assay with TK-10; 0.762 µM (active) with DU-145; 1.03 µM (active) in the assay on IGROV-1; 0.196 µM (active) with NCI-H460; 0.21 µM (active) in the assay on HL-60; 0.309 µM (active) in the assay on CCRF-CEM. Further, the GI50 in the assay on OVCAR-3 is 0.243 µM (active); with SNB-19 it was 0.897 µM (active); in the assay on HCT-15 it was 0.254 µM; with Malme-3M it was 0.188 µM (active); with MCF7, 0.289 µM (active); in the assay with CAKI-1, 0.733 µM (active). Besides, the GI50 in the assay on COLO 205 is 0.203 µM (active).

As to `O=C1CC[C@@]23CC(=O)O[C@@H]2CCCC3C1` (stereo partly drawn), the GI50 in the assay on NCI-H226, in the assay with 786-0, in the assay with EKVX, in the assay on RPMI-8226, in the assay on HT-29 and with M14 was > 100 µM (inactive) each time. In addition, the GI50 with TK-10, in the assay on DU-145, in the assay with IGROV-1, in the assay with OVCAR-4, with NCI-H460 and with HL-60 was > 100 µM (inactive) in each case. Besides, the GI50 in the assay on CCRF-CEM is > 100 µM (inactive); with SNB-19, > 100 µM (inactive); in the assay on HCT-15, more than 100 µM; with Malme-3M, > 100 µM (inactive); with MCF7 it was > 100 µM (inactive); in the assay with CAKI-1, > 100 µM (inactive). In addition, the GI50 in the assay with COLO 205 was > 100 µM (inactive).

As to `CC(=O)N1CCN(CCCCN2c3ccccc3Sc3cc(N=[N+]=[N-])ccc32)CC1`, the GI50 in the assay with NCI-H226 is 17.6 µM (inactive); in the assay on 786-0, 15.6 µM (inactive); in the assay on EKVX, 18.2 µM (inactive); in the assay on RPMI-8226, 10.5 µM (inactive); with HT-29, 13.6 µM (inactive); in the assay with TK-10, 17.4 µM (inactive). For the same compound, the GI50 is 18.1 µM (inactive) in the assay on DU-145; 15.2 µM (inactive) in the assay on IGROV-1; 14.1 µM (inactive) in the assay with NCI-H460; 8.87 µM (inactive) with HL-60; 14.5 µM (inactive) in the assay with CCRF-CEM; 12.8 µM (inactive) in the assay on OVCAR-3. For the same compound, the GI50 with SNB-19 was 14.5 µM (inactive); with HCT-15, 14.9 µM; with Malme-3M, 17.1 µM (inactive); in the assay on MCF7, 14 µM (inactive); in the assay on CAKI-1, 12.1 µM (inactive); with COLO 205 it was 14.2 µM (inactive).

In the case of `CCOC(=O)N1CCC2(CC1)C[C@@](C(C)=O)(c1ccccc1)C(C)O2` (stereo partly drawn), the GI50 in the assay with NCI-H226, in the assay with 786-0, in the assay with EKVX, with RPMI-8226, in the assay with HT-29 and with M14 was > 100 µM (inactive) in each case. In addition, the GI50 with TK-10, in the assay with DU-145, in the assay on IGROV-1, with OVCAR-4, in the assay with NCI-H460 and in the assay with HL-60 was > 100 µM (inactive) throughout. Also, the GI50 is > 100 µM (inactive) with OVCAR-3; > 100 µM (inactive) with SNB-19; more than 100 µM in the assay on HCT-15; > 100 µM (inactive) in the assay with Malme-3M; > 100 µM (inactive) in the assay on MCF7; > 100 µM (inactive) with CAKI-1. Further, the GI50 with COLO 205 is > 100 µM (inactive).
